Reference: patent EP1466597A1, “Use of dha esters to control or prevent cardiovascular diseases” (Clinigenetics, priority 2003, dated 2004)
“Also recorded” adds a separate entry of the source.

Key:
[1] = tested on: PMA stimulated THP1 cells; assay: Inhibition of lipoprotein (Cy3-oxLDL) uptake / lipid vesicle accumulation in macrophage foam cells; assay type: cell-based; conditions: PMA-differentiated THP1 cells, 2 hours with cy3 labeled oxLDL (1 µg/ml), fluorescence microscopy
Experimental: The THP-1 cell line from the European Collection of Cell Cultures, (ECACC, Wilshire, UK) were selected to generate a cellular model that mimics the differentiation and the growth of a foam cell. Typically, the cells (5.10^5 cells/ml) were maintained and grown in RPMI-1640, 10% FBS, 100 Unit/ml penicillin and 100 µg/ml streptomycin, […] L-Glutamine (Biowhittaker, Verviers , Belgium) in 37°C, 5% CO2 incubator. Medium was replaced every 2-3 days.
Human LDL were isolated from fresh plasma using a two steps KBr gradient ultracentrifugation (Leger et al., Free Rad. Res., 2002, 36, 127-142), LDL were dialyzed against NaCl 150 mM, sodium phosphate 10 mM, DTPA 10 µM (pH 7,4) for 24 hours. […]
Finally, lipoproteins were also characterized by their electrophoretic mobility. […] At the end of the labeling procedure, Cy3-OxLDL was extensively dialyzed and labeling efficiency was evaluated by measuring the absorbance at 548 nm.
To induce differentiation into macrophages, 1.5 10^5 cells/wells were plated in 96-well plates in culture medium supplemented with 10^-7 M of phorbol 12-myristate-13-acetate (Sigma) for 24 hours at 37°C, 5% CO2. […] After 2 washes with PBS, images of Cy-3 oxLDL uptake were captured using a fluorescence microscope coupled with a CCD camera. Each image was analyzed and quantified using QFluoro Software (Leica).

thromboxane A2 = conditions: described in EP 0 623 019; cited from earlier work

In the case of `CC/C=C\C/C=C\C/C=C\C/C=C\C/C=C\C/C=C\CCC(=O)O[C@H](CO)COP(=O)([O-])OCC[N+](C)(C)C` [lyso-PCDHA, 1-lyso, 2-DHA-glycero-phosphocholine], the “accumulation of lipid vesicles in macrophage / formation of foam cells” value [1] is listed as “can block the accumulation of lipid rich vesicles in macrophage and prevent the formation of foam cell; also recorded: Dose dependent effect for the inhibition of lipid vesicles in macrophage cells; also recorded: can inhibit the accumulation of lipid vesicles in macrophage and block the formation of foam cells” and the platelet aggregation inhibition (thromboxane A2) is listed as “platelet aggregation inhibitors”.
